Source: ChEMBL document CHEMBL4680295, “Structure guided development of potent piperazine-derived hydroxamic acid inhibitors targeting falcilysin” (Bioorg Med Chem Lett, 2021)

What was measured:
Plasmodium falciparum = experiment: Parasiticidal activity against Plasmodium falciparum 3D7; assay type: functional, organism-based
Falcilysin = target: T1, Falcilysin (Plasmodium falciparum (isolate 3D7), UniProt Q76NL8); experiment: Inhibition of Plasmodium falciparum FLN
T1 sequence (Q76NL8 whole entry): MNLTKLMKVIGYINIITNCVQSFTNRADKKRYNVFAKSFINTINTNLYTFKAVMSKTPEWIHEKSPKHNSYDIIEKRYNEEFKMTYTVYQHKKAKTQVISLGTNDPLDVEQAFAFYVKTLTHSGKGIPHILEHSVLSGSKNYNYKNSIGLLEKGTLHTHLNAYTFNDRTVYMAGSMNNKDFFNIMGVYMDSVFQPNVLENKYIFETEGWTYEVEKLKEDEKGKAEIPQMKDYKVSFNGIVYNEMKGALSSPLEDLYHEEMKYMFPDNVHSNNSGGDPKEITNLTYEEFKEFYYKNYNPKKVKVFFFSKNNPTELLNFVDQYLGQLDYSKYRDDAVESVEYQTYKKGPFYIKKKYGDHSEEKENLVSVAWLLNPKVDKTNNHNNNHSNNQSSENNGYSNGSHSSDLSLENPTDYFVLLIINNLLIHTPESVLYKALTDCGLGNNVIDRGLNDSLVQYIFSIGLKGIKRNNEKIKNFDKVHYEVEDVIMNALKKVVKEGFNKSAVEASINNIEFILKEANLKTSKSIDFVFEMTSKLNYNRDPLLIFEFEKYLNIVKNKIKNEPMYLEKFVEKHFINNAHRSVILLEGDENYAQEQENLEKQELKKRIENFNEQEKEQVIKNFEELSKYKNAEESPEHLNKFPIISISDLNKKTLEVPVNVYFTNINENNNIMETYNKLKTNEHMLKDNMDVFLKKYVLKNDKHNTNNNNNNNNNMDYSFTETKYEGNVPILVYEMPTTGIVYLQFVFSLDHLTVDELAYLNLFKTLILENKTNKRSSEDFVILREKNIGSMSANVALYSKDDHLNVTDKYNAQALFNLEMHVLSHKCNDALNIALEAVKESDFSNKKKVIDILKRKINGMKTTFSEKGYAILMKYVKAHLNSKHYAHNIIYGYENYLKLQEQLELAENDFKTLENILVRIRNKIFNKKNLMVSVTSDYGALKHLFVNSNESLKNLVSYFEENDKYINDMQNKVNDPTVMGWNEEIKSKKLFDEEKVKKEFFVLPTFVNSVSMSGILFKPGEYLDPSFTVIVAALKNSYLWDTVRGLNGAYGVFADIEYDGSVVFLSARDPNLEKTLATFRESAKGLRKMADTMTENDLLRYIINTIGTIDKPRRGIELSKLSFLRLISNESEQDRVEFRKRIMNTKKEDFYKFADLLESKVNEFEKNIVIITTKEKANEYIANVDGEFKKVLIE

SMILES	EC50 (Plasmodium falciparum) [µM]	Ki (Falcilysin) [µM]
O=C(NO)C1CN(C(=O)c2ccc(-c3ccccc3)cc2)CCN1S(=O)(=O)c1ccc(Br)cc1 (centres undefined)	2.6	3
CNC(=O)C1CN(S(=O)(=O)c2ccc(-c3ccccc3)cc2)CCN1S(=O)(=O)c1cccc(CCc2ccccc2)c1 (centres undefined)	2.1	2.5
COC(=O)C1CN(S(=O)(=O)c2ccc(-c3ccccc3)cc2)CCN1S(=O)(=O)c1ccc(/C=C/c2ccccc2)cc1 (centres undefined)	0.8	0.6
C#Cc1ccc(S(=O)(=O)N2CCN(C(=O)c3ccc(I)cc3)CC2C(=O)NO)cc1 (centres undefined)	> 25	> 25
O=C(NO)C1CN(C(=O)c2cccc3ccccc23)CCN1S(=O)(=O)c1ccc(Br)cc1 (centres undefined)	4	9
O=C(NO)C1CN(Cc2ccc(-c3ccccc3)cc2)CCN1S(=O)(=O)c1ccc(I)cc1 (centres undefined)	5	4.9
CNC(=O)C1CN(S(=O)(=O)c2ccc(-c3cccnc3OC)cc2)CCN1S(=O)(=O)c1ccc(-c2ccccc2)cc1 (centres undefined)	1.4	4
O=C(NO)C1CN(C(=O)c2ccc(-c3ccccc3)cc2)CCN1S(=O)(=O)c1ccc(-c2ccccc2)cc1 (centres undefined)	> 25	10
CNC(=O)C1CN(S(=O)(=O)c2ccc(-c3ccccc3)cc2)CCN1S(=O)(=O)c1cccc(-c2cccnc2OC)c1 (centres undefined)	6	4
O=C(NO)C1CN(S(=O)(=O)c2ccc(-c3ccccc3)cc2)CCN1S(=O)(=O)c1cccc(Br)c1 (centres undefined)	1.6	1.4
COC(=O)C1CN(S(=O)(=O)c2ccc(-c3ccccc3)cc2)CCN1S(=O)(=O)c1ccc(-c2ccccc2)cc1 (centres undefined)	2.1	2.5
O=C(NO)C1CN(C(=O)c2ccc3ccccc3c2)CCN1S(=O)(=O)c1ccc(Br)cc1 (centres undefined)	7	3.5
O=C(NO)C1CN(C(=O)c2ccc(-c3ccccc3)cc2)CCN1S(=O)(=O)c1ccc(-c2ccsc2)cc1 (centres undefined)	6	11
CNC(=O)C1CN(S(=O)(=O)c2ccc(I)cc2)CCN1S(=O)(=O)c1ccc(-c2ccccc2)cc1 (centres undefined)	9	2.6
O=C(NO)C1CN(S(=O)(=O)c2ccc(Cc3ccccc3)cc2)CCN1S(=O)(=O)c1ccc(Br)cc1 (centres undefined)	> 25	> 25
O=C(NO)C1CN(S(=O)(=O)c2ccc(-c3ccccc3)cc2)CCN1S(=O)(=O)c1cccc(-c2ccccc2)c1 (centres undefined)	7	0.9
O=C(NO)C1CN(C(=O)c2ccc(I)cc2)CCN1S(=O)(=O)c1ccc(Br)cc1 (centres undefined)	> 25	> 25
CNC(=O)C1CN(S(=O)(=O)c2ccc(-c3ccccc3)cc2)CCN1S(=O)(=O)c1cccc(-c2ccc(C(=O)c3ccccc3)cc2)c1 (centres undefined)	0.9	1.7
O=C(NO)C1CN(Cc2ccc(-c3ccccc3)cc2)CCN1S(=O)(=O)c1ccc(Br)cc1 (centres undefined)	10	5
O=C(NO)C1CN(C(=O)c2ccc(-c3ccccc3)cc2)CCN1S(=O)(=O)c1ccc(I)cc1 (centres undefined)	3	4
C#Cc1ccc(S(=O)(=O)N2CCN(C(=O)c3ccc(C(=O)c4ccccc4)cc3)CC2C(=O)NO)cc1 (centres undefined)	6	> 25
CNC(=O)C1CN(S(=O)(=O)c2cccc(Br)c2)CCN1S(=O)(=O)c1ccc(-c2ccccc2)cc1 (centres undefined)	4.7	1.4
C#Cc1ccc(S(=O)(=O)N2CCNCC2C(=O)NO)cc1 (centres undefined)	> 25	> 25
COC(=O)C1CN(Cc2ccc(-c3ccccc3)cc2)CCN1S(=O)(=O)c1ccc(Br)cc1 (centres undefined)	1.4	4
O=C(NO)C1CN(S(=O)(=O)c2ccc(/C=C/c3ccccc3)cc2)CCN1S(=O)(=O)c1ccc(-c2ccccc2)cc1 (centres undefined)	16	1.1
O=C(NO)C1CN(S(=O)(=O)c2ccc(-c3ccccc3)cc2)CCN1S(=O)(=O)c1ccc(-c2ccccc2)cc1 (centres undefined)	7	0.22
CNC(=O)C1CN(S(=O)(=O)c2ccc(-c3ccccc3)cc2)CCN1S(=O)(=O)c1cccc(/C=C/c2ccccc2)c1 (centres undefined)	5	1
